The target of test [1] is C. elegans (N2) complex I (NADH:ubiquinone oxidoreductase) (Caenorhabditis elegans, UniProt P24887+Q93873+Q94360). Description: biochemical. The test is classed as biochemical. Particulars: for activity at 0.0001 µM / activity at 0.0005 µM / activity at 0.001 µM / activity at 0.0025 µM / activity at 0.005 µM / activity at 0.013 µM / activity at 0.025 µM / activity at 0.063 µM / activity at 0.125 µM / activity at 0.313 µM / activity at 0.625 µM / activity at 1.5 µM / activity at 3 µM / activity at 15 µM / activity at 37.5 µM / activity at 75 µM: read-out: C. elegans mitochondrial complex I activity; for Log IC50 C. elegans complex I: log10 of IC50 in µM, C. elegans mitochondria. The method in brief:
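Mitochondria, 0.2 mg/mL protein, freeze-thawed three times, assayed in 25 mM KPi pH 7.5 with BSA, 80 μM NADH, 60 μM decylubiquinone, 160 μM DCIP, antimycin A and KCN. Rate from initial linear slope of A600 over 15 min. % of solvent control.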

A further test has as its system L1 wild-type C. elegans. Briefly: microbe, parasite or virus in culture. Particulars: Caenorhabditis elegans, read-out: C. elegans KCN Survival Assay LC50, estimated from fitted dose-response curves; mean of at least two biological replicates.
Where [2] appears, read: in vitro complex I dose response on C. elegans mitochondria, average of at least two biological replicates, fit in R (DRC), read-out: IC50 C. elegans complex I.
[3] abbreviates: wild-type C. elegans mitochondria, estimated from fitted dose-response curves, read-out: C. elegans Complex I IC50.
[4] abbreviates: wild-type (N2) mitochondria, read-out: C. elegans Complex I IC50.

These results are taken from publication PMC11079024, “Identification of a family of species-selective complex I inhibitors as potential anthelmintics” (Nature Communications, 2024).

Read-outs that look alike come from different tables or passages of the source.

Sequence of C. elegans (N2) complex I (NADH:ubiquinone oxidoreductase) (Q94360 17-199): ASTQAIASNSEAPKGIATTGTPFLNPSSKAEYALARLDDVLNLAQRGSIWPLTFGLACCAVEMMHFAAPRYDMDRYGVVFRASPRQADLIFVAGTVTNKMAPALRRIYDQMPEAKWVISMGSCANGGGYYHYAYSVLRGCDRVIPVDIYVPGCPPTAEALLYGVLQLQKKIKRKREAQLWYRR
Sequence of C. elegans (N2) complex I (NADH:ubiquinone oxidoreductase) (P24887 whole entry): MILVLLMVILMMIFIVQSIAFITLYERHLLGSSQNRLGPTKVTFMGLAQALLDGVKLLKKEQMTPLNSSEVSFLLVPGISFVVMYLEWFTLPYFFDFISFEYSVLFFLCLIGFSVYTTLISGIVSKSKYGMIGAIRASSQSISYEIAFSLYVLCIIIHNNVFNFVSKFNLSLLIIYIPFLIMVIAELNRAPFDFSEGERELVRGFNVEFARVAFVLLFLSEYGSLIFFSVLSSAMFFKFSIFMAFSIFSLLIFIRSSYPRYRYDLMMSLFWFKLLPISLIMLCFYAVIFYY
Sequence of C. elegans (N2) complex I (NADH:ubiquinone oxidoreductase) (Q93873 31-482): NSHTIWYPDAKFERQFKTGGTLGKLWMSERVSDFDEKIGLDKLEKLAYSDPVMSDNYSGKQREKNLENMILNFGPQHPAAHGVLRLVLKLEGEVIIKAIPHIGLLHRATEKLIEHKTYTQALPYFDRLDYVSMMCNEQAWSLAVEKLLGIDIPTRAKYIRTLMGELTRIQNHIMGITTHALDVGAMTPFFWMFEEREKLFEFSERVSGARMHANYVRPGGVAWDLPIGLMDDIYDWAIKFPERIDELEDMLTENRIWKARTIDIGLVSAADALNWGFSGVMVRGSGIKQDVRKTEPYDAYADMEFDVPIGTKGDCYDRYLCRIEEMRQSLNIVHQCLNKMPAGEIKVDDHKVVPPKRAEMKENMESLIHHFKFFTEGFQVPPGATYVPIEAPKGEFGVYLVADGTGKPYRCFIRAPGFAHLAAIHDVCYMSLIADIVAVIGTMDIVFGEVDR

For `Cc1ccccc1OCCCn1c(C)nc2ccccc21` [Compound 7916923], in test [1], the activity at 0.0001 µM came out at 94.5%, the activity at 0.0005 µM stood at 93.6%, the activity at 0.001 µM turned out to be 94.8% and the activity at 0.0025 µM was 99.1%. In test [1], the activity at 0.005 µM came out at 96.8%, the activity at 0.013 µM was found to be 102%, the activity at 0.025 µM was determined as 94.3% and the activity at 0.063 µM turned out to be 89.3%. In test [1], the activity at 0.125 µM came to 86.3%, the activity at 0.313 µM amounted to 78.5%, the activity at 0.625 µM amounted to 65.6% and the activity at 1.5 µM was determined as 42.6%. Further, in test [1], the activity at 3 µM turned out to be 27.6%, the activity at 15 µM was 7.28%, the activity at 37.5 µM was determined as 4.39% and the activity at 75 µM was 4.47%. In addition, in test [1], the “Log IC50 C. elegans complex I” value stood at 0.07 µM. For the same molecule, the IC50 in test [1] (setting [2]) came out at 1170 nM. The IC50 in test [1] (setting [3]) was 1170 nM. The LC50 with L1 wild-type C. elegans is 12000 nM.

`Brc1ccccc1OCCCCn1cnc2ccccc21` [Compound 7924576]: in test [1], the activity at 0.0001 µM was determined as 82.9%, the activity at 0.0005 µM amounted to 89.9%, the activity at 0.001 µM worked out at 81.8% and the activity at 0.0025 µM worked out at 93.2%. Further, in test [1], the activity at 0.005 µM was found to be 91.6%, the activity at 0.013 µM turned out to be 87.2%, the activity at 0.025 µM turned out to be 76% and the activity at 0.063 µM worked out at 73.6%. In test [1], the activity at 0.125 µM is 67.2%, the activity at 0.313 µM came out at 52.4%, the activity at 0.625 µM was 40.5% and the activity at 1.5 µM worked out at 21.3%. For the same molecule, in test [1], the activity at 3 µM was found to be 12.5%, the activity at 15 µM came to 10.2%, the activity at 75 µM came out at 5.45% and the “Log IC50 C. elegans complex I” value is -0.37 µM. The IC50 in test [1] (setting [3]) is 430 nM. Also, in the test with L1 wild-type C. elegans, the LC50 is 6730 nM.

As to `FC(F)(F)c1cccc(OCCCCn2cnc3ccccc32)c1` [Compound 7925004], in test [1], the activity at 0.0001 µM was determined as 115%, the activity at 0.0005 µM is 105%, the activity at 0.001 µM stood at 110% and the activity at 0.0025 µM came out at 110%. In addition, in test [1], the activity at 0.005 µM was determined as 105%, the activity at 0.013 µM was 103%, the activity at 0.025 µM came out at 105% and the activity at 0.063 µM is 104%. For the same molecule, in test [1], the activity at 0.125 µM came to 98%, the activity at 0.313 µM stood at 81.9%, the activity at 0.625 µM was 91.2% and the activity at 1.5 µM stood at 67.6%. Also, in test [1], the activity at 3 µM stood at 48.6%, the activity at 15 µM was found to be 22.1%, the activity at 37.5 µM was 13.1% and the activity at 75 µM worked out at 1.4%. Moreover, the “Log IC50 C. elegans complex I” value in test [1] worked out at 0.31 µM. Besides, the IC50 in test [1] (setting [2]) was found to be 2060 nM. In test [1] (setting [4]), the IC50 was 2060 nM. Also, the IC50 in test [1] (setting [3]) was 2060 nM. Besides, in the test on L1 wild-type C. elegans, the LC50 was 13900 nM.

As for `CCc1cc(OCCn2cnc3ccccc32)ccc1Cl` [Compound 7925288], in test [1], the activity at 0.0001 µM stood at 89.3%, the activity at 0.0005 µM amounted to 90.8%, the activity at 0.001 µM turned out to be 94% and the activity at 0.0025 µM is 90.8%. Further, in test [1], the activity at 0.005 µM was found to be 98.8%, the activity at 0.013 µM came to 96.9%, the activity at 0.025 µM was determined as 96.9% and the activity at 0.063 µM is 63.2%. In addition, in test [1], the activity at 0.125 µM is 63.3%, the activity at 0.313 µM is 77.6%, the activity at 0.625 µM was 77.6% and the activity at 1.5 µM stood at 60.7%. Moreover, in test [1], the activity at 3 µM amounted to 46.8%, the activity at 15 µM was 16.1%, the activity at 37.5 µM was 4.53% and the activity at 75 µM stood at 2.28%. For the same molecule, the “Log IC50 C. elegans complex I” value in test [1] is 0.91 µM. Besides, the IC50 in test [1] (setting [2]) came to 8090 nM. In addition, in test [1] (wild-type C. elegans mitochondria, read-out: C. elegans Complex I IC50), the IC50 is 8090 nM. Besides, the LC50 in the test with L1 wild-type C. elegans is 19100 nM.

As for `Cc1ccc(SCCCCn2cnc3ccccc32)cc1` [Compound 7925333], in test [1], the activity at 0.0001 µM worked out at 91.6%, the activity at 0.0005 µM was 94.2%, the activity at 0.001 µM came to 101% and the activity at 0.0025 µM was 95.1%. In addition, in test [1], the activity at 0.005 µM was 100%, the activity at 0.013 µM came out at 91.2%, the activity at 0.025 µM amounted to 93.7% and the activity at 0.063 µM was 96.6%. In addition, in test [1], the activity at 0.125 µM is 81%, the activity at 0.313 µM stood at 64.2%, the activity at 0.625 µM came to 65.6% and the activity at 1.5 µM is 44%. Besides, in test [1], the activity at 3 µM worked out at 28.6%, the activity at 15 µM turned out to be 10.5%, the activity at 37.5 µM came to 5.81% and the activity at 75 µM was 7.08%. Moreover, the “Log IC50 C. elegans complex I” value in test [1] turned out to be 0.017 µM. The IC50 in test [1] (setting [2]) turned out to be 1040 nM. For the same molecule, the IC50 in test [1] (setting [4]) was 1040 nM. For the same molecule, the IC50 in test [1] (setting [3]) is 1040 nM. In addition, in the test on L1 wild-type C. elegans, the LC50 is 7760 nM.

On to `Clc1ccc(SCCCCn2cnc3ccccc32)cc1` [Compound 7925515], for which, in test [1], the activity at 0.0001 µM was 90.8%, the activity at 0.0005 µM amounted to 89.5%, the activity at 0.001 µM is 93.5% and the activity at 0.0025 µM was 93.3%. In test [1], the activity at 0.005 µM came out at 91%, the activity at 0.013 µM is 90.5%, the activity at 0.025 µM was 86.2% and the activity at 0.063 µM stood at 83.9%. Further, in test [1], the activity at 0.125 µM is 76.1%, the activity at 0.313 µM was 69.1%, the activity at 0.625 µM amounted to 60.1% and the activity at 1.5 µM amounted to 39.1%. For the same molecule, in test [1], the activity at 3 µM amounted to 22%, the activity at 15 µM came out at 10.5%, the activity at 37.5 µM came out at 7.84% and the activity at 75 µM stood at 5.86%. For the same molecule, in test [1], the “Log IC50 C. elegans complex I” value is on record as -0.0223 µM. Further, the IC50 in test [1] (setting [2]) was determined as 950 nM. Also, the half-inhibitory concentration (IC50) in test [1] (setting [4]) was determined as 950 nM. The IC50 in test [1] (setting [3]) is 950 nM. In addition, in the test with L1 wild-type C. elegans, the LC50 was 6740 nM.
